Measurements reported in article PMC12073635, “Synthesis of Tricyclic and Tetracyclic Lactone Derivatives of Thieno[2,3-b]pyrazine or Thieno[2,3-b]quinoline: Preliminary Antitumor and Antiparasitic Activity Evaluation” (Molecules, 2025).

Assays:
[1] = system: THP-1-derived macrophages; assay: MTT cytotoxicity in THP-1-derived macrophages; assay type: cell-based, human
Procedure: Human leukemia cell line, THP-1 (ATCC® TIB-202™, Manassas, VA, USA) was cultured in RPMI-1640 medium supplemented with 10% heat-inactivated Fetal Bovine Serum (FBS), 2 mM L-glutamine, 100 UI/mL penicillin/streptomycin, 20 mM HEPES. The cell line was maintained in a humidified incubator at 37 °C and 5% CO2 by subculture every three days in 20 mL of media at a concentration of 1 × 10^5/mL in a T75 flask. All cell culture reagents were purchased from Lonza-Bioscience (Morrisville, NC, USA).
The cytotoxicity effect of compounds on THP-1-derived macrophages was assessed by the colorimetric MTT assay (3-(4,5-dimethylthiazol-2-yl)-2,5-diphenyl tetrazolium bromide). Briefly, THP-1 cells were suspended in RPMI complete medium at a density of 1 × 10^6 cells/mL and 100 μL/well were seeded in a 96-well plate and were differentiated into macrophages by addition of 40 ng/mL of phorbol-myristate 13-acetate (PMA, Sigma, Saint Louis, MI, USA) for 24 h followed by replacement with fresh medium for more 24 h. Subsequently, cells were incubated with 100 μL of compounds ranging from 100 to 12.5 μM after dilution in the RPMI complete medium. Each condition was carried out in quadruplicate. After 72 h of incubation at 37 °C 5% CO2, the medium was removed and 200 μL of 0.5 mg/mL MTT solution diluted in RPMI was added. Plates were incubated for an additional 4 h. Then 160 μL of media was removed and the same volume of 2-propanol was added. Absorbance was read at 570 nm using a Synergy 2 Multi-Mode Reader (Biotek, Winooski, VT, USA). Cytotoxicity was evaluated by the determination of the CC50 value (drug concentration that reduced the percentage of viable cells in 50%) and calculated by non-linear regression analysis using GraphPad Prism version 8.1.1 for Windows (GraphPad Software, San Diego, CA, USA). The results represent the average of at least three independent experiments. For each compound, the Selectivity Index (SI) was calculated as the ratio between cytotoxicity in THP-1 (CC50, 72 h) and activity against parasites (IC50, 72 h).

[2] = system: HeLa (cervical carcinoma) cells; assay: SRB cell growth inhibition assay, HeLa; assay type: cell-based; conditions: Homo sapiens, 72 h, mean ± standard deviation
Procedure: (§1) The antitumor potential of the Sonogashira coupling products 2, tricyclic lactones 3 and 5, and tetracyclic lactones 7 was evaluated using the sulforhodamine B (SRB) assay against five human tumor cell lines: colorectal adenocarcinoma (CaCo-2), breast adenocarcinoma (MCF-7), gastric adenocarcinoma (AGS), cervical carcinoma (HeLa), and non-small cell lung cancer (NCI-H460). A primary pig liver cell culture (PLP2) was used to assess the toxicity of compounds.
(§2) The human tumor cell lines used were CaCo-2 (colorectal adenocarcinoma), MCF-7 (breast adenocarcinoma), AGS (gastric adenocarcinoma), HeLa (cervical carcinoma), NCI-H460 (lung carcinoma). Non-tumor cell lines were also tested: PLP2 (primary pig liver culture). All the cell lines were maintained in RPMI-1640 medium supplemented with 10% fetal bovine serum, glutamine (2 mM), penicillin (100 U/mL), and streptomycin ([…]), with the exception of PLP2, which was maintained in DMEM medium supplemented with fetal bovine serum (10%), glutamine and antibiotics. The culture flasks were incubated at 37 °C and with 5% CO2, under a humid atmosphere. The cells were used only when they had 70 to 80% confluence. A known mass of each compound was dissolved in DMSO/H2O (1:1, 1 mL), in order to obtain the stock solutions with a concentration of 1 mM. […] Each compound concentration (10 μL) was incubated with the cell suspension (190 μL) of the cell lines tested in 96-well microplates for 72 h. The microplates were incubated at 37 °C and with 5% CO2 in a humid atmosphere after checking the adherence of the cells. All cell lines were tested at a concentration of 10,000 cells/well. After the incubation period, the cells were treated: TCA (10% w/v; 100 μL) was previously cooled, and plates were incubated for 1 h at 4 °C, washed with water, and, after drying, a SRB solution (0.057%, m/v; 100 μL) was added and left to stand at room temperature for 30 min. To remove non-adhered SRB, plates were washed three times with a solution of acetic acid (1% v/v) and placed to dry. Finally, an adhered SRB was solubilized with Tris (10 mM, 200 μL) and the absorbance at a wavelength of 540 nm was read in the Biotek ELX800 microplate reader. The results obtained by the SRB assay were expressed regarding the concentration compounds that can inhibit cell growth by 50%—GI50. Doxorubicin was used as a positive control.

[3] = system: NCI-H460 (non-small cell lung cancer) cells; assay: SRB cell growth inhibition assay, NCI-H460; assay type: cell-based; conditions: Homo sapiens, 72 h, mean ± standard deviation
Procedure: as §1, §2

[4] = system: AGS (gastric adenocarcinoma) cells; assay: SRB cell growth inhibition assay, AGS; assay type: cell-based; conditions: Homo sapiens, 72 h, mean ± standard deviation
Procedure: as §1, §2

[5] = system: CaCo-2 (colorectal adenocarcinoma) cells; assay: SRB cell growth inhibition assay, CaCo-2; assay type: cell-based, human; conditions: mean ± standard deviation
Procedure: as §1, §2

[6] = system: MCF-7 (breast adenocarcinoma) cells; assay: SRB cell growth inhibition assay, MCF-7; assay type: cell-based, human; conditions: mean ± standard deviation
Procedure: as §1, §2

GI50 [2] | GI50 [3] | GI50 [4] | GI50 ([5]; Homo sapiens, Caco-2, 72 h) | GI50 ([6]; Homo sapiens, MCF7, 72 h) | GI50 ([5]; 72 h) | GI50 ([6]; 72 h) | Structure (SMILES) | cytotoxicity in THP-1-derived macrophages (in words) [1]
58.8 ± 2.44 µM | 61.2 ± 4.17 µM | 42.6 ± 3.96 µM | 58.8 ± 2.44 µM | 59.3 ± 2.45 µM | – | – | O=c1oc(-c2ccccn2)cc2c1sc1nccnc12 [Compound 3f, 8-(Pyridin-2-yl)-6H-pyrano[4′,3′:4,5]thieno[2,3-b]pyrazin-6-one] | some degree of cytotoxicity
5.44 ± 4.31 µM | 9.33 ± 4.21 µM | 9.25 ± 0.61 µM | < 5 µM | < 5 µM | 3.72 ± 2.42 µM | 4.08 ± 0.27 µM | COC(=O)c1sc2nccnc2c1C#Cc1ccccn1 [Compound 2f, Methyl 7-(pyridin-2-ylethynyl)thieno[2,3-b]pyrazine-6-carboxylate] | some level of toxicity
